# Measurements as given in patent US6455585B1, “Esters derived from substituted phennyl-cyclohexyl compounds” (Vita Invest, S.A., priority 1998, dated 2002).
# Tests used:
# Male Swiss mice [1] = experiment: Determination of the DL50 (acute single dose oral toxicity); format: in vivo; conditions: oral single administration, 14 days observation
# Experimental: b) Determination of the DL50 in the Products.
# (EUDRA/S/87/011, Single Dose Toxicity, European Directive 75/318/EEC) (ICH S4, Toxicity Studies, single dose and repeated dose, CPMP vol III Feb. 87, Single dose toxicity)
# Male Swiss mice of the same batch weighing 20-25 g are used in order to estimate the acute toxicity of the products.
# Prior to administering the products, the animals were forced to fast for 12 hours with no intake of food but free access to water. Several subgroups of 10 animals were randomly selected and orally given increasing doses of the products in single administration, after which they remained under observation for a period of 14 days with free access to water and food. Finally, the number of dead animals of each subgroup was quantified and the value of the DL50 was calculated (1-2).
# Male Swiss mice [2] = experiment: Hot plate method, analgesic activity in mice; format: in vivo; conditions: for % response time increase on hot plate: 20 μmol/kg, oral adm., n = 20-40; for change in vivo at 15 mg/kg: Mus musculus, ip, 0.5 h, hot plate test, intraperitoneal adm., n = 20, read-out: % response time increase
# Experimental: The pharmacological activity of the products of the present invention was tested in vivo in several experimental models, which are known to evaluate the pain in animals.
# The method that was used is described by Eddy N. B. and Leimbach D. (J. Pharm. Exp. Ther. 107: 385-393, 1953). The analgesic effect of the products was evaluated analysing the behaviour of the animals on a hot surface at 55° C.±1° C.
# Male Swiss mice weighing 20-25 g were used. The compounds being tested were administered orally or intraperitoneally 1 hour o 30 minutes before starting the test, respectively.
# The process consisted of placing the animals on the plate and keeping them in a Plexiglas cylinder 25 cm high and 21 cm […]. The time the animals took to jump off the hot surface was determined. The animals were selected before starting the test so that those that took longer than 10 seconds to jump off were not included in the group that would receive treatment.
# 30 minutes after administering the product being tested, the test was repeated and the maximum time it took the animals to jump off was again recorded.
# The results are expressed as the […] of jump time increase calculated as follows: [formula]
# In order to determine the duration of the analgesic effect of the orally administered products, the analgesic activity was evaluated on the hot plate 1, 3, 6, 8, and 24 hours after the administration of the product, as well as the control group which received treatment only with the vehicle. The base responses were evaluated at 30 and 5 minutes prior to administering the products.
Compound,DL50 approx. Oral adm. (Male Swiss mice [1]) [mg/kg],% response time increase on hot plate (Male Swiss mice [2]) [%],change in vivo at 15 mg/kg (Male Swiss mice [2]) [%]
"CC(C)Cc1ccc(C(C)C(=O)Oc2cccc(C3(O)CCCCC3CN(C)C)c2)cc1 (stereo not drawn) [EXAMPLE 1, 3-(2-Dimethylaminomethyl-1-hydroxycyclohexyl)-phenyl 2-(4-Isobutyl-phenyl)-propionate]",~900,210 ± 88,568 ± 100
"CN(C)CC1CCCCC1(O)c1cccc(OC(=O)c2ccccc2OC(=O)N(C)C)c1 (stereo not drawn) [EXAMPLE 8, 3-(2-Dimethylaminomethyl-1-hydroxy-cyclohexyl)-phenyl (RR-SS)-2-dimethylcarbamoyloxy-benzoate]",,,327 ± 65
"COc1ccc2cc(C(C)C(=O)Oc3cccc(C4(O)CCCCC4CN(C)C)c3)ccc2c1 (stereo not drawn) [EXAMPLE 2, 3-(2-Dimethylaminomethyl-1-hydroxyyclohexyl)-phenyl 2-(6-Methoxy-naphthalen-2-yl)-propionate]",,,539 ± 50
"COc1ccc2cc(C(C)C(=O)Oc3cccc(C4=C(CN(C)C)CCCC4)c3)ccc2c1 (stereo not drawn) [EXAMPLE 5, 3-(2-Dimethylaminomethyl-cyclohex-1-enyl)-phenyl 2-(6-Methoxy-naphthalen-2-yl)-propionate]",,,356 ± 151
"CN(C)CC1CCCCC1(O)c1cccc(OC(=O)c2ccccc2O)c1 (stereo not drawn) [EXAMPLE 6, 3-(2-Dimethylaminomethyl-1-hydroxy-cyclohexyl)-phenyl (RR-SS)-2-hydroxybenzoate]",~550,248 ± 72,546 ± 63
"CN(C)CC1CCCCC1(O)c1cccc(OC(=O)C2CCn3c(C(=O)c4ccccc4)ccc32)c1 (stereo not drawn) [EXAMPLE 3, 3-(2-Dimethylaminomethyl-1-hydroxycyclohexyl)-phenyl 5-Benzoyl-2,3-dihydro-1H-pyrrolizine-1-carboxylate]",,,416 ± 146
"CC(C)Cc1ccc(C(C)C(=O)Oc2cccc(C3=C(CN(C)C)CCCC3)c2)cc1 (stereo not drawn) [EXAMPLE 4, 3-(2-Dimethylaminomethyl-cyclohex-1-enyl)-phenyl 2-(4-Isobutyl-phenyl)-propionate]",,,333 ± 134
"CN(C)CC1=C(c2cccc(OC(=O)c3ccccc3O)c2)CCCC1 [EXAMPLE 7, 3-(2-Dimethylaminomethyl-cyclohex-1-enyl)-phenyl 2-Hydroxybenzoate]",,,634 ± 42
"COc1cccc(C2(O)CCCCC2CN(C)C)c1 (single isomer, unassigned) [Tramadol, (1R, 2R or 1S, 2S)-2-[(dimethylamino)methyl]-1-(3-methoxyphenyl) cyclohexanol, reference compound]",~350,87 ± 23,218 ± 98
